Experimental findings from ChEMBL document CHEMBL1147587, “Synthesis of 7'-[123I]iodo-D-luciferin for in vivo studies of firefly luciferase gene expression” (Bioorg Med Chem Lett, 2004) are described below.

The assay relates to Lampyridae.

Description: Michaelis-Menten constant for binding affinity towards firefly luciferase

`O=C(O)[C@H]1CSC(c2nc3ccc(O)c(I)c3s2)=N1`: the Km stood at 4.28 µM.

A word on the Km: it is the substrate concentration at which the rate is half of its maximum.
